Data published in paper PMC6934184, “Selective DNA-PKcs inhibition extends the therapeutic index of localized radiotherapy and chemotherapy” (The Journal of Clinical Investigation, 2019).

Molecular target: T1, MAPK13 (p38 delta) (Homo sapiens, UniProt O15264)
T1 construct: purchased Thermo Fisher Scientific (Life Technologies) SelectScreen
Assay: SelectScreen Z'LYTE
Format: biochemical
How it was run: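 SelectScreen broad panel; activity (Z'LYTE, Adapta) plus binding formats. ATP: Km app for CSF1R Z'LYTE; 10 for CAMK1 Adapta. Readout = % per kinase.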

T1 sequence (O15264 whole entry): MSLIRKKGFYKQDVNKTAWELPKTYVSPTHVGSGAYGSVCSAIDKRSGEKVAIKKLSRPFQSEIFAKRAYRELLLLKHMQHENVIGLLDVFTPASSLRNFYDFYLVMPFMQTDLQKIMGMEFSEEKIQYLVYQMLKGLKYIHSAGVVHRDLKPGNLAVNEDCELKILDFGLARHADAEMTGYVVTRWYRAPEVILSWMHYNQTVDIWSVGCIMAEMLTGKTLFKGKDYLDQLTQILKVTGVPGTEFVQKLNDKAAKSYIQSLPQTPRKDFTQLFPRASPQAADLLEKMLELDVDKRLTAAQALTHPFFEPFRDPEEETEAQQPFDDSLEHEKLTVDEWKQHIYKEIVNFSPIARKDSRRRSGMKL

Compound `CN(C(=O)CN1CCOCC1)c1ccc2sc3c(-c4cccc5c(=O)cc(N6CC7CCC(C6)O7)oc45)cccc3c2c1` [NU5455] has an inhibition at 1 µM of 5.8%.
